Source: patent publication US8501715B2, “Oxidized lipids and uses thereof in the treatment of inflammatory diseases and disorders” (Vascular Biogenics Ltd., priority 2003, dated 2013)

Legend:
apoE(−/−) mice = details: administration of alpha-galactosylceramide; Tupin et al.; cited from earlier work
apoE(−/−)CD1d(−/−) mice = details: administration of alpha-galactosylceramide; Tupin et al.; cited from earlier work
[1] = system: T-cells from inguinal lymph node; test: Proliferation assay (stimulation index) of lymph node cells exposed to Human ox-LDL; assay type: in vivo; details: oral 1 mg/mouse every other day for 5 days
Description: 6 week old male Apo-E KO mice were fed either 1 mg/mouse L-ALLE (L-ALLE) (n=2) or POVPC (POVPC) (n=3) in 0.2 ml PBS; or PBS alone (CONTROL) (n=3) every other day for 5 days. One week following the last feeding the mice were immunized with a single subcutaneous injection of 50 μg Human oxidized LDL antigen. 7 days later T-cells from inguinal lymph node were prepared as described in Materials and Methods section that follows, and exposed to the sensitizing Human ox-LDL antigen for in-vitro assessment of proliferation. Proliferation, indicating immune reactivity, is expressed as the ratio between incorporation of labeled thymidine into the T-cell's DNA in the presence and absence of human ox-LDL antigen (stimulation index, S.I.).
II. […]
Proliferation was assayed eight days after immunization with the oxidized LDL as follows: Spleens or lymph nodes were prepared by meshing the tissues on 100 mesh screens. […] Incomplete medium was added (10 ml), cells were centrifuge for 7 minutes at 1,700 rpm, resuspended in RPMI medium and counted in a haemocytometer at 1:20 dilution (10 μl cells+190 μl Trypan Blue). Proliferation was measured by the incorporation of [^3H]-Thymidine into DNA in triplicate samples of 100 μl of the packed cells (2.5×10^6 cells/ml) in a 96 well microtiter plate. […]

[2] = FPLC analysis of triglyceride and cholesterol content of VLDL; assay type: in vivo; details: oral 1 mg/mouse, 3 sets over 12 weeks; measured 9 weeks from t=0; FPLC of pooled blood
Description: (§1) 24.5 weeks old Apo-E KO mice were fed 1 mg/mouse L-ALLE (triangle) (n=11), D-ALLE (inverted triangle) (n=9) or POVPC (square) (n=10) every other day for 5 days, at 4 weeks intervals over a 12 weeks period. Control mice were fed an identical volume (0.2 ml) and regimen of PBS (circle) (n=10). Triglyceride content (Tg, mg/ml) was measured 9 weeks from t=0, by enzymatic colorimetric method in the VLDL fractions following separation of pooled blood samples on FPLC, as described in the materials and methods section that follows.
as §1, with “Cholesterol” for “Triglyceride”, “(Cholesterol,” for “(Tg,”
FPLC Analysis: Fast Protein Liquid Chromatography analysis of cholesterol and lipid content of lipoproteins was performed using Superose 6 HR 10/30 column (Amersham Pharmacia Biotech, Inc, Peapack, N.J.) on a FPLC system (Pharmacia LKB. FRAC-200, Pharmacia, Peapack, N.J.). A minimum sample volume of 300 μl (blood pooled from 3 mice was diluted 1:2 and filtered before loading) was required in the sampling vial for the automatic sampler to completely fill the 200 μl sample loop. Fractions 10-40 were collected, each fraction contained 0.5 ml. A 250 μl sample from each fraction was mixed with freshly prepared cholesterol reagent or triglyceride reagent respectively, incubated for 5 minutes at 37° C. and assayed spectrophotometrically at 500 nm.
Their effect on the triglyceride and cholesterol fractions of VLDL was also monitored by FPLC. […] male, 24.5 week old Apo-E KO mice were divided into 5 groups. In group A (n=11) mice were fed with 1 mg/mouse L-ALLE suspended in 0.2 ml PBS, administered by gavage, as described above, every other day for 5 days. In group B (n=9) mice were fed with 1 mg/mouse D-ALLE suspended in 0.2 ml PBS, administered per os, as described above, every other day for 5 days. In group C (n=10) mice were fed with 1 mg/mouse POVPC suspended in 0.2 ml PBS, administered by gavage, as described above, every other day for 5 days. […]
(§2) Mice were bled prior to feeding (Time 0), after the 2nd set of feeding and at the conclusion of the experiment (End) for determination of lipid profile, lipid fractionation and plasma collection. Atherosclerosis was assessed as described above in the aorta sinus and aorta. […] Weight was recorded every 2 weeks throughout the experiment. […]

Apo-E KO mice [3] = test: Aorta lesion (% from total area); assay type: in vivo; details: oral 1 mg/mouse, 5 feedings every other day every 4 weeks over 12 weeks; 24.5 week old mice; End
Source text: Assessment of Atherosclerosis: Quantification of atherosclerotic fatty streak lesions was done by calculating the lesion size in the aortic sinus as previously described (Paigen et al. Quantitative assessment of atherosclerotic lesions in mice. Atherosclerosis 1987; 68: […]) and by calculating the lesion size in the aorta. Briefly, after perfusion with saline Tris EDTA, the heart and the aorta were removed from the animals and the peripheral fat cleaned carefully. The upper section of the heart was embedded in OCT medium (10.24% w/w polyvinyl alcohol; 4.26% w/w polyethylene glycol; 85.50 w/w nonreactive ingredients) and frozen. […] Sections were evaluated for fatty streak lesions after staining with oil-red O. Lesion areas per section were scored on a grid (Rubin et al. Inhibition of early atherogenesis in transgenic mice by human apoplipoprotein A-I. Nature 1991; 353: 265-267) by an observer counting unidentified, numbered specimens. […]
Their effect on the triglyceride and cholesterol fractions of VLDL was also monitored by FPLC. […]
as §2

Apo-E KO mice [4] = test: Assessment of atherosclerosis: lesion area in the aortic sinus; assay type: in vivo, mouse; details: oral 1 mg/mouse

Row | Structure (SMILES) | increase in lesion size (apoE(−/−) mice) | Lesion size (apoE(−/−)CD1d(−/−) mice) | change of Stimulation Index versus PBS ([1]; then immunization with Human oxidized LDL) | Stimulation Index (SI) ([1]; then s.c. immunization with Human oxidized LDL, lymph nodes one week later) | cholesterol content of VLDL [2] | triglyceride content of VLDL [2] | Aorta lesion (% from total area) (Apo-E KO mice [3]) | Sinus Lesion (Apo-E KO mice [4]; 5 feedings every other day every 4 weeks over 12 weeks, 24.5 week old mice, End (12 weeks after first feeding)) | protection from atheromatous progression (Apo-E KO mice [4]; late stage, compared with lesion scores at 24.5 weeks)
1 | CCCCCCCCCCCCCCCCCCCCCCCCCC(=O)N[C@@H](CO[C@H]1O[C@H](CO)[C@H](O)[C@H](O)[C@H]1O)[C@H](O)[C@H](O)CCCCCCCCCCCCCC [alpha-galactosylceramide] | 50% | did not affect lesion size |  |  |  |  |  |  | 
2 | CCCCCCCCCCCCCCCCOC[C@@H](COP(=O)([O-])OCC[N+](C)(C)C)OCCCCC=O [L-ALLE, 3-hexadecyl-2-(5′-oxo-pentanyl)-sn-glycero-1-phosphocholine] |  |  | −78% | 7.3 ± 2.3 | reduction | reduction | 5.4 % from total area | 233056 ± 12746 μm^2 | nearly complete protection
